Results on two compounds are retold here after patent US20220087962A1, “COMPOSITIONS AND METHODS FOR TREATING AGE-RELATED DISEASES OR CONDITIONS” (Arizona Board of Regents on Behalf of the University of …, priority 2019, published 2022).

Data set [1] concerns tau. Particulars: cultured human neurons; cited from earlier work.
The target in data set [2] is α-synuclein (Homo sapiens, UniProt P37840). Particulars: QA self-assembled fibrils; cited from earlier work.
In data set [3] the test system is brain tissue. Particulars: cited from earlier work.
Data set [4] deals with C. elegans. In words: C. elegans lifespan with 3HAA supplementation. The data set is classed as in vivo, Caenorhabditis elegans. As to conditions: 3HAA supplementation of worms. How it is done:
3HAA mediates lifespan extension by haao-1 knockdown. 3HAA is red in color. Worms with reduced HAAO turned visibly red with age. Using liquid chromatography-tandem mass spectrometry (LC-MS/MS), it was confirmed that these worms had elevated 3HAA (FIG. 3B). Next, it was assessed whether 3HAA may mediate the benefits of reducing haao-1. Indeed, worms supplemented with 3HAA were long-lived (FIG. 3C), mimicking haao-1 knockdown (FIG. 3D).

The test system of data set [5] is C. elegans expressing human Aβ1-42 in body wall muscle. The data set can be described thus: Paralysis in C. elegans expressing human Aβ1-42 in body wall muscle (Alzheimer's disease model). As to conditions: 3HAA supplementation; transgenic Aβ1-42 in body wall muscle. The class given is in vivo, Caenorhabditis elegans. The protocol:
It was then tested whether 3HAA would prevent Aβ toxicity in vivo. In C. elegans, transgenic expression of the aggregate-prone 42 amino acid form of Aβ (Aβ1-42) in body wall muscle induces paralysis (Link C D. Proc Natl Acad Sci USA 1995, 92:9368-72). […] Next and as described below, 3HAA will be tested as a treatment for amyloid pathology in a cellular context more relevant to AD.

Data set [6] concerns C. elegans expressing a 35-unit polyglutamine repeat peptide in body wall muscle. The data set can be described thus: Paralysis in C. elegans expressing a 35-unit polyglutamine repeat peptide in body wall muscle (Huntington's disease model). The data set is classed as in vivo, Caenorhabditis elegans. Particulars: 3HAA supplementation; aggregate-prone polyglutamine repeat in body wall muscle.

Data set [7] can be described thus: Direct interaction of 3HAA with H2O2 in vitro. Particulars: addition of 3HAA in the absence of other media components. The source says:
(§1) Superoxide dismutases degrade cellular superoxide to oxygen and H2O2.

Data set [8] relates to C. elegans. In words: Endogenous H2O2 produced by C. elegans in vivo. Details: species or system Caenorhabditis elegans. As to conditions: 3HAA supplementation.
Excerpt: as §1

For data set [9], the target named is Aβ (Homo sapiens, UniProt P05067). Particulars: buffered media; direct binding to Aβ; cited from earlier work.
Aβ, sequence (P05067 672-713 limits assumed): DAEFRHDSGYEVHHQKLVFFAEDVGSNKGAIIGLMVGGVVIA
The test system of data set [10] is cultured human blood cells. Particulars: cited from earlier work.
In data set [11] the test system is brains of rats. As to conditions: cited from earlier work.
The subject of data set [12] is hemeoxygenase-1 (HO-1). As to conditions: human cell culture; cited from earlier work.

Structures are written as SMILES. Entries after “also recorded” stand apart in the source; their conditions may differ.

As for `O=C(O)c1cccnc1C(=O)O` [QA, quinolinic acid], in data set [1], the tau phosphorylation entry was “drives tau phosphorylation”. Besides, the “seeding of α-synuclein aggregation” value in data set [2] is “seed and accelerate aggregation of α-synuclein; also recorded: seeding aggregation of α-synuclein”. Besides, the “in vivo lipid peroxidation in brain tissue” value in data set [3] is “induces in vivo lipid peroxidation in brain tissue”.

For the compound `Nc1c(O)cccc1C(=O)O` [3HAA, 3-hydroxyanthranilic acid], the lifespan entry in [4] is listed as “long-lived; also recorded: extends lifespan; also recorded: robustly extended lifespan”. Further, the “onset of paralysis (Aβ toxicity)” value in data set [5] was “delayed onset of paralysis; also recorded: delays paralysis; also recorded: delayed Aβ pathology”. Also, the “paralysis (polyglutamine repeat model)” value in data set [6] is “delays paralysis”. In addition, the “measureable H2O2 in vitro (direct degradation of H2O2)” value in data set [7] is given as “reduced measureable H2O2; also recorded: directly breaks down H2O2; also recorded: directly degrades H2O2; also recorded: direct degradation of hydrogen peroxide”. In addition, the “endogenous H2O2 produced by C. elegans in vivo” value in [8] is “limited endogenous H2O2; also recorded: reduces H2O2 produced by C. elegans in vivo”. Moreover, the “Aβ misfolding/aggregation in vitro” value in [9] is “prevents Aβ aggregation; also recorded: prevents Aβ misfolding through direct binding; also recorded: preventing misfolding and aggregation”. The LDL oxidation result in [10] is given as “prevents LDL oxidation”. Besides, the lipid peroxidation entry in data set [11] is listed as “prevents”. In data set [12], the “expression of hemeoxygenase-1 (HO-1)” value was “induces expression of the antioxidant hemeoxygenase-1 (HO-1)”.
